Patent publication US6445486B1, “Electroactive materials and beneficial agents having a solubilizing moiety” (Gentex Corporation, priority 1999, dated 2002)
In brackets after ≈: the same amount, converted by molar mass.

Assay: physchem
Details: organic solvent or mixture, thermodynamic from solid

Row | Compound | solubility [mM]
1 | C[N+]1(CCN2c3ccccc3N(c3ccccc3)c3ccccc32)CCCCC1.F[P-](F)(F)(F)(F)F [1-Methyl-1-[2-(10-phenyl-10H-phenazin-5-yl)-ethyl]-piperidinium hexafluorophosphate] | 500

Assay: Solubility at saturation in the solvent of interest, calculated from UV-VIS spectra of saturated solutions
Details: propylene carbonate, organic solvent or mixture, thermodynamic from solid

Row | Compound | solubility [mM]
2 | Cc1ccc2c(c1)N(C)c1ccc(C)cc1N2C [2,5,7,10-Tetramethyl-5,10-dihydrophenazine, reference compound] | 55 (≈ 13100 µg/mL)
3 | CN1c2ccccc2N(C)c2ccccc21 [5,10-Dihydro-5,10-dimethylphenazine, reference compound] | 110 (≈ 23100 µg/mL)
4 | c1ccc(N2c3ccccc3N(CCN3CCCCC3)c3ccccc32)cc1 [5-Phenyl-10-(2-piperidin-1-yl-ethyl)-5,10-dihydrophenazine, reference compound] | 5 (≈ 1850 µg/mL)
5 | CCn1c(=NN=c2sc3ccccc3n2CC)sc2ccccc21 [N,N′-Bis-(3-ethyl-3H-benzothiazol-2-ylidene)-hydrazine, reference compound] | 12 (≈ 4250 µg/mL)
6 | CC[N+](CC)(CC)CCCCn1c(=NN=c2sc3ccccc3n2C)sc2ccccc21.F[B-](F)(F)F [triethyl-(4-{2-[(3-methyl-3H-benzothiazol-2-ylidene)-hydrazono]-benzothiazol-3-yl}-butyl)-ammonium tetrafluoroborate] | 47

Same assay, conditions: saturated solution in propylene carbonate; ambient temperature

Row | Compound | Solubility in propylene carbonate [mM]
7 | 1-Triethylammonium-6-(tetra-t-butylferrocenyl)hexane BF4 | 514.4
8 | CC[N+](CC)(CC)CCN1c2ccc(C)cc2N(CC[N+](CC)(CC)CC)c2ccc(C)cc21.F[B-](F)(F)F.F[B-](F)(F)F [2,7-Dimethyl-5,10-bis-2-(triethylammonium)ethylphenazine [BF4]2] | 250
9 | CC[N+](CC)(CC)CCN1c2ccccc2N(CC[N+](CC)(CC)CC)c2ccccc21.F[B-](F)(F)F.F[B-](F)(F)F [5,10-Bis-2-(triethylammonium)ethylphenazine [BF4]2] | 200
10 | F[B-](F)(F)F.F[B-](F)(F)F.N#Cc1ccc(-[n+]2ccc(-c3cc[n+](CCC[c-]4cccc4)cc3)cc2)cc1.[Fe+2].c1cc[cH-]c1 [Ferrocenepropyl-p-cyanophenylviologen tetrafluoroborate] | 276.0
